Assays:
Type in all cases: biochemical, Dictyoglomus thermophilum
[1] = system: T1, Xln-DT; experiment: glucose release, Michaelis-Menten; details: 0.2-10 g/L substrate
T1 construct: recombinant, pET-28a-xln-DT in E. coli BL21(DE3), heat treatment and Ni-NTA; ~55 kDa on SDS-PAGE
Source text: glucose release, Michaelis-Menten on Xln-DT

[2] = system: T1, Xln-DT; experiment: xylose release, Michaelis-Menten; details: 0.2-10 g/L substrate
Source text: xylose release, Michaelis-Menten on Xln-DT

[3] = system: T1, Xln-DT; experiment: pNP release at […] nm, Michaelis-Menten; details: 50 mM sodium phosphate pH 6.0, optimal temperature

Compound	Km [3]	also measured
OC[C@H]1O[C@@H](O[C@H]2[C@H](O)[C@@H](O)C(O)O[C@@H]2CO)[C@H](O)[C@@H](O)[C@@H]1O (some centres unmarked) [Cellobiose]		Km [1]: 11000 µM
OC1OC[C@@H](O[C@@H]2OC[C@@H](O)[C@H](O)[C@H]2O)[C@H](O)[C@H]1O (some centres unmarked) [X2, Xylobiose]		Km [2]: 930 µM
O=[N+]([O-])c1ccc(O[C@@H]2O[C@@H](CO)[C@H](O)[C@H]2O)cc1 [pNPA]	1020 µM	
O=[N+]([O-])c1ccc(O[C@@H]2O[C@H](CO)[C@@H](O)[C@H](O)[C@H]2O)cc1 [pNPG]	3670 µM	
O=[N+]([O-])c1ccc(O[C@@H]2OC[C@@H](O)[C@H](O)[C@H]2O)cc1 [pNPX]	1660 µM	
